The nature of series [1]: refractive index (Na D-line) (dimensionless). The note with it: 298.2 K; 101.33 kPa; Liquid; Standard Abbe refractometry.
The nature of series [2]: refractive index (Na D-line) (dimensionless); wn = mass fraction of the nth substance listed. The note with it: 298.2 K; 101.3 kPa; Liquid; Standard Abbe refractometry; w1 = 0.85.
Series [3] can be described thus: wn = mass fraction of the nth substance listed. The note with it: 298.2 K; 101.3 kPa; Liquid; Vibrating tube method; w1 = 0.85.
The conditions of series [4]: 298.2 K; 101.33 kPa; Liquid; Vibrating tube method.

± gives the expanded uncertainty stated by the source.

As for `O` [water], the refractive index in series [1] is 1.3325 ± 0.001. Regarding `O=P(O)(O)O` [phosphoric acid] + O, the refractive index in series [2] stood at 1.432 ± 0.001. Further, the mass density in series [3] worked out at 1682.7 ± 1.1 kg/m3.

Consider `CCCOC(C)=O` [propyl ethanoate], for which the mass density in series [4] stood at 882.26 ± 1.2 kg/m3. In addition, the refractive index in series [1] was 1.383 ± 0.0011. Turning to `CCCCCOC(C)=O` [pentyl ethanoate], the mass density in series [4] came out at 872.02 ± 1.2 kg/m3. Moreover, the refractive index in series [1] was 1.3991 ± 0.0011.
